Test results reported in patent publication US9526721B2, “Tetrahydroprotoberbine compounds and uses thereof in the treatment of neurological, psychiatric and neurodegenerative diseases” (priority 2012, dated 2016).

Columns and labels:
5HT3 = target: T1, 5HT3 (Homo sapiens, UniProt P46098); assay: Receptor binding, 5HT3; conditions: CHO cells
T1 construct: host or cells: CHO cells
T1 sequence (P46098 24-478): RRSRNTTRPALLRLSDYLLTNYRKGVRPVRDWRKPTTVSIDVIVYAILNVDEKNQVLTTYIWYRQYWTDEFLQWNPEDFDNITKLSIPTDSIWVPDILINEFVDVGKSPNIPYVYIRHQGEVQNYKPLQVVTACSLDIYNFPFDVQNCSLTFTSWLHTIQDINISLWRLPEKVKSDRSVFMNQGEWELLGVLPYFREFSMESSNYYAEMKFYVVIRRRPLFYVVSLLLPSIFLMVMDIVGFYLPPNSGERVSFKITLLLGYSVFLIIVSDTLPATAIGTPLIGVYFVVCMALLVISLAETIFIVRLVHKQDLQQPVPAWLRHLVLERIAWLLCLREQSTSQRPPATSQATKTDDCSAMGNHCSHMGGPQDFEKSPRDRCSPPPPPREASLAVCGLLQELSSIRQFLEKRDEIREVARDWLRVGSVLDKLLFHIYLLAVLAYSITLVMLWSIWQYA
Method: (§1) All receptors tested were heterologously expressed CHO cells and IC50 values were determined by a non-linear, least squares regression analysis using MathIQ (ID Business Solution Ltd, UK). Ki was calculated using the equation of Cheng and Prusoff (1973, Biochem. Pharmacol 22:23099-3108) derived from the observed IC50 of the tested compound, the concentration of radioligand employed in the assay, and the historical values for the Kd of the ligand (obtained experimentally at MDS Pharma Services).

5HT2C = target: T2, 5HT2C (Homo sapiens, UniProt P28335); assay: Receptor binding, 5HT2C; conditions: receptor expressed in CHO cells
T2 construct: host or cells: CHO cells
T2 sequence (P28335 33-458): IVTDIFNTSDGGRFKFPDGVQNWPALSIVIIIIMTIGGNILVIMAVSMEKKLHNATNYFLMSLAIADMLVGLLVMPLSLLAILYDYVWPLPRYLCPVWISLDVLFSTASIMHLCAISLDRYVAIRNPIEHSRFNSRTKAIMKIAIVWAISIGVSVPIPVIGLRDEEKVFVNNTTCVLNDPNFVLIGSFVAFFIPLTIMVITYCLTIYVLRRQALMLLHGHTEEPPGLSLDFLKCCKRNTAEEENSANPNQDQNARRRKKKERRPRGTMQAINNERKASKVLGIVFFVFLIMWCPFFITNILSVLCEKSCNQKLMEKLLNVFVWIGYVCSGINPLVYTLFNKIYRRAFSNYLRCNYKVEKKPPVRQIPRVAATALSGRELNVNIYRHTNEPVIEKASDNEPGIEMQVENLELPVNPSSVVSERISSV
Method: as §1
as §1, with “receptors” for “receptors tested”, “UK). K1” for “UK). Ki”, “calculated (Y.” for “calculated using the equation of”, “Cheng &” for “Cheng and”, “Prusoff 1973)” for “Prusoff (1973, Biochem. Pharmacol 22:23099-3108) derived”

D3 = target: T3, D3 (Homo sapiens, UniProt P35462); assay: Receptor binding, dopamine D3; conditions: receptor expressed in CHO cells
T3 construct: host or cells: CHO cells
T3 sequence (P35462 whole entry): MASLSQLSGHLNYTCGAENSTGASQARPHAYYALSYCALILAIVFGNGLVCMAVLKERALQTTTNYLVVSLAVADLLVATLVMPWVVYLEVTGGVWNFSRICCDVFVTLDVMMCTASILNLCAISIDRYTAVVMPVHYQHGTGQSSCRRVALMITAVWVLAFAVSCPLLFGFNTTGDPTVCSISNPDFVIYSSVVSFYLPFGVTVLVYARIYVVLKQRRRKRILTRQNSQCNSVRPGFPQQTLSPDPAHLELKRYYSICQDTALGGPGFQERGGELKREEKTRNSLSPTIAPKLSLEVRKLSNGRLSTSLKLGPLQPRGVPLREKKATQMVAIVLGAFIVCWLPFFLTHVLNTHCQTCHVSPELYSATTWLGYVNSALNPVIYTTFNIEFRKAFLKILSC
Method: as §1
as §1, with “receptors” for “receptors tested”, “UK). K1” for “UK). Ki”, “calculated (Y.” for “calculated using the equation of”, “Cheng &” for “Cheng and”, “Prusoff 1973)” for “Prusoff (1973, Biochem. Pharmacol 22:23099-3108) derived”

D2L = target: T4, D2L (Homo sapiens, UniProt P14416); assay: Receptor binding, dopamine D2L; conditions: for Ki: receptor expressed in CHO cells, read-out: Ki, D2L
T4 construct: host or cells: CHO cells
T4 sequence (P14416 whole entry): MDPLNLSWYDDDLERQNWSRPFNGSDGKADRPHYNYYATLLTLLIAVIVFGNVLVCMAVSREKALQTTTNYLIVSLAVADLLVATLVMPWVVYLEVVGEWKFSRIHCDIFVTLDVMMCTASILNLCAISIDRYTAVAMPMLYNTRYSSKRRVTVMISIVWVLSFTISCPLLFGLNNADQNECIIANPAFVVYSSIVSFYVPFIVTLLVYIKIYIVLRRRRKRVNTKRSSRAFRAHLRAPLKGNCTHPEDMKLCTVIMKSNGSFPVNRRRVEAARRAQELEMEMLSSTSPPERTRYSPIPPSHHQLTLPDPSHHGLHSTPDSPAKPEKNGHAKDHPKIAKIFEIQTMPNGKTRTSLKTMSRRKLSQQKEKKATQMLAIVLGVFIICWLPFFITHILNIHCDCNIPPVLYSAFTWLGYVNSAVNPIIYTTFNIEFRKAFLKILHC
Method: as §1
as §1, with “receptors” for “receptors tested”, “UK). K1” for “UK). Ki”, “calculated (Y.” for “calculated using the equation of”, “Cheng &” for “Cheng and”, “Prusoff 1973)” for “Prusoff (1973, Biochem. Pharmacol 22:23099-3108) derived”

5HT4 = target: T5, 5HT4 (Homo sapiens, UniProt Q13639); assay: Receptor binding, 5HT4
T5 construct: host or cells: CHO cells
T5 sequence (Q13639 whole entry, species assumed): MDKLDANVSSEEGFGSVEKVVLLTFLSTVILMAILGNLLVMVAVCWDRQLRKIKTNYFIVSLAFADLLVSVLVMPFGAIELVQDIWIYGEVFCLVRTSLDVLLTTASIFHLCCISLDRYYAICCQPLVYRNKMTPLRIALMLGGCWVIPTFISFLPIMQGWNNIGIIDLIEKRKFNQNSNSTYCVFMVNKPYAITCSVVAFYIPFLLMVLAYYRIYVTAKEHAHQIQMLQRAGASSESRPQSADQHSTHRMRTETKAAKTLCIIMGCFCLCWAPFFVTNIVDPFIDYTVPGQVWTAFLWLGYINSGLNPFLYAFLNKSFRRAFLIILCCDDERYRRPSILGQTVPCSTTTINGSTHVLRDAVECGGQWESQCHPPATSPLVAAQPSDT
Method: as §1

5HT1A = target: T6, 5HT1A (Homo sapiens, UniProt P08908); assay: Receptor binding, 5HT1A; conditions: receptor expressed in CHO cells
T6 construct: host or cells: CHO cells
T6 sequence (P08908 1-422): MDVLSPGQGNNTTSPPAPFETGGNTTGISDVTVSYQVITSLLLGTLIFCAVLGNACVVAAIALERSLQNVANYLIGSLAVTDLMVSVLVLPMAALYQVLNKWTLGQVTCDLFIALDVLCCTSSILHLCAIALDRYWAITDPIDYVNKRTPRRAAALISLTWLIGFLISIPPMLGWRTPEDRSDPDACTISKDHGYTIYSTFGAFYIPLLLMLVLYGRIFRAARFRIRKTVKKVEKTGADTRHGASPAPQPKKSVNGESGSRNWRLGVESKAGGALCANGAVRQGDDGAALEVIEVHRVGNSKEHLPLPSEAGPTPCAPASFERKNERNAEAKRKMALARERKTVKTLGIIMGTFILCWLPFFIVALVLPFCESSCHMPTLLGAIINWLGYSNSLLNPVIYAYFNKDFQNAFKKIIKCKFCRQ
Method: as §1
as §1, with “receptors” for “receptors tested”, “UK). K1” for “UK). Ki”, “calculated (Y.” for “calculated using the equation of”, “Cheng &” for “Cheng and”, “Prusoff 1973)” for “Prusoff (1973, Biochem. Pharmacol 22:23099-3108) derived”

Dopamine D1 receptors = target: T7, Dopamine D1 receptors (Homo sapiens, UniProt P21728); assay: Dopamine D1 receptor Adenylyl Cyclase Cellular Assay (cAMP, HTRF); assay type: cell-based; conditions: for IC50: D1 antagonism, cAMP, CHO cells, read-out: IC50 of antagonistic response; for % Response Agonist: increase in cAMP relative to dopamine response; for % Response Agonist / % Response Antagonist: D1 in CHO cells; for % Response Antagonist: inhibition of dopamine-induced cAMP increase
T7 construct: host or cells: CHO cells
T7 sequence (P21728 whole entry): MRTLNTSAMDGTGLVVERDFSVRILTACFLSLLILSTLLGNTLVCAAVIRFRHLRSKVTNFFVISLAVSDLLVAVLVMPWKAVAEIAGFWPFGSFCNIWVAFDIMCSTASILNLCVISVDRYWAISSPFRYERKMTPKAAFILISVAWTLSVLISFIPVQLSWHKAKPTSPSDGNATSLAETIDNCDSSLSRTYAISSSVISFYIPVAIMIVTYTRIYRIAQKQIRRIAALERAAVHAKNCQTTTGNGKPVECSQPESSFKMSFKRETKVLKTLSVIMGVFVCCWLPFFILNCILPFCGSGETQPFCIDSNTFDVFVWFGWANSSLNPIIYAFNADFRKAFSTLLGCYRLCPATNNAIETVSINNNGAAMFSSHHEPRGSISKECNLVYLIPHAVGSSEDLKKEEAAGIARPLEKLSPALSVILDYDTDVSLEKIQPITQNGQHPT
From the text: Methods employed in this Example were adapted from Liu et al (1992, Mol Endocrinol 92:1815-1824) and Zhou et al (1990, Nature 347:76-79) to maximize reliability and reproducibility. Reference standards were run as an integral part of each assay to ensure the validity of the results obtained. […] (+)-Butaclamol was used as a positive control for the assay assessing antagonism. Homogeneous fluorescence methodology HTRF homogeneous fluorescence quantitation methodology was used to measure the levels of cAMP. The criterion for significant agonist activity is ≧50% increase in cAMP relative to dopamine response. The criteria for significant antagonist activity ≧50% inhibition of dopamine-induced cAMP increase.

D4.2 = target: T8, D4.2 (Homo sapiens, UniProt P21917, DEL265-296); assay: Receptor binding, dopamine D4.2; conditions: CHO cells
T8 construct: host or cells: CHO cells
T8 sequence (P21917 with tags, fused parts or gaps DEL265-296): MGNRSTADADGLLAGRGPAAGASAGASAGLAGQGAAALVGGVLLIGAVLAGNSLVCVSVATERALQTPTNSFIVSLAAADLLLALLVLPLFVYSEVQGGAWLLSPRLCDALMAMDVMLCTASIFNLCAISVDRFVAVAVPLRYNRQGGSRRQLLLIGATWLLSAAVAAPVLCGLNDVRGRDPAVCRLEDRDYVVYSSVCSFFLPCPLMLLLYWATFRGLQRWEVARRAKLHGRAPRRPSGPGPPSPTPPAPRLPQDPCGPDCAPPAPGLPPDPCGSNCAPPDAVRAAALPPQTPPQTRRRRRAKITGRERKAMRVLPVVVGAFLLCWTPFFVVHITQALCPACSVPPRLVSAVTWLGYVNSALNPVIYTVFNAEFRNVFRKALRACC
Method: as §1

D1 = D1 (Homo sapiens, UniProt P21728); assay: Receptor binding, dopamine D1; design: host or cells: CHO cells; conditions: for Ki: receptor expressed in CHO cells, read-out: Ki, D1
D1, sequence (P21728 whole entry): as the sequence (P21728 whole entry) above
Method: as §1
as §1, with “receptors” for “receptors tested”, “UK). K1” for “UK). Ki”, “calculated (Y.” for “calculated using the equation of”, “Cheng &” for “Cheng and”, “Prusoff 1973)” for “Prusoff (1973, Biochem. Pharmacol 22:23099-3108) derived”

Compound	inhibition at 10 µM (5HT3)	Ki (5HT2C)	Ki (D3)	binding affinity to the D2 receptor (D2L)	Ki (D2L)	Ki (5HT4; receptor expressed in CHO cells)	Ki (5HT1A)	IC50 (Dopamine D1 receptors)	% Response Agonist (Dopamine D1 receptors)	% Response Antagonist (Dopamine D1 receptors)	inhibition at 10 µM (D4.2)	binding affinity to the D1 receptor (D1)	Ki (D1)	inhibition at 10 µM (5HT4; 10 μM, CHO cells)
COc1cc2c(cc1O)CN1CCc3cc(OC)c(O)cc3[C@@H]1C2 [l-govadine]	5%	45200 nM	548 nM	strong affinity	165 nM	2470 nM	15200 nM	16.6 nM	2%	87%	21%	strong affinity	5.77 nM	–
COc1cc2c(cc1O)CN1CCc3cc(OC)c(O)cc3[C@H]1C2 [d-govadine]	-8%	46500 nM	606 nM	weak affinity	1340 nM	–	18200 nM	2380 nM	2%	82%	20%	strong binding affinity	8.75 nM	42%
